Assay [1] relates to "1321" cells. Nature of the assay: Flow-cytometric cell cycle analysis of "1321" keratinocytes (HPV-16 E6/E7 under β-actin promoter). The settings on record: 6 mM sodium butyrate, 16 hours. Type of assay: cell-based, human. The text has this: (B) Flow-cytometric analysis. Quantification of the proportion of cells in the cell cycle phases G1, S and G2/M (standard deviations are the mean of three independent experiments).
HPV18-positive cervical Carcinoma cells (HeLa) were maintained in Dulbecco's modified Eagle's medium (DMEM), supplemented with 10% fetal calf serum (Gibco BRL, Rockville, USA), 1% penicillin and streptomycin (Sigma, Deisenhofen, Deutschland). Primary human keratinocytes, immortalized by E6-, E7- and E6/E7-open reading frames carrying amphotroptic retroviruses were cultivated in “Keratinocyte Medium Kit” (Sigma). Human foreskin keratinocytes transformed with HPV-16 E6/E7 either under the control of a human β-actin promoter (,1321″) or under the control of the authentic upstream regulatory region HPV (,1637″) were a kind gift of Dr. R. Schlegel (Georgetown University, Washington, USA) (Münger et al., J. Virol. 63 (1989), 4414-4423; Villa & Schlegel, Virology 181 (1991), 374-377). […]
Cells were harvested by trypsinisation, washed twice with phosphate-buffered saline (PBS) and fixed overnight in 70% ethanol. […] Cell cycle analysis and quantification of flow cytometric data was performed according to Dean and Jett, J. Cell. […]

Assay [2] has as its system cyclin D1. Kind of assay: Western blot of cyclin D1 in HeLa cells. The format is cell-based, human. As to conditions: 6 mM sodium butyrate, 16 hours. As for the experimental part: 50 μg of protein were separated on 12% SDS-PAGE minigels. After electrotransfer, the filters were incubated with antibodies against cyclin D1, cyclin E, cyclin A or cdk2, cdk4 or cdk6 specific antibodies. Equal protein loading was confirmed by reincubating the filters with a monoclonal actin antibody.
Cellular extracts were separated in 8-12% SDS PAGE gels and electrotransferred as described elsewhere (Finzer et al., Oncogene 19 (2000), 3235-3244; Soto et al., Oncogene 18 (1999), 3187-3198). The following antibodies were used: cyclin E (HE 12), cyclin D 1 (HD 11), cdk2 (M2), (D-12; Santa Cruz Biotechnology, Inc., Santa Cruz, USA), cdk4 (C-22), cdk6 (C-21), p27^KIP1 (C-19), (K25020), p45^SKP2 (N-19), HPV18-E7 (N-19) and E2F-1 (KH95) (Santa Cruz Biotechnology, Inc. Santa Cruz, USA), p21^CIP1 (C24420; Transduction Laboratories, Lexington, USA), pRB (NCL-RB; Novocastra, UK), p16^INK4 (15126E, Pharmingen, San Diego, USA) and HPV 16 E7 (ZYMED Lab. Inc., San Francisco, USA). Cyclin A was kindly provided by M. Pagano (Pagano et al., EMBO J. 11 (1992), 961-971). Equal protein transfer and loading was routinely checked by incubating the filters with a monoclonal actin antibody (ICN Biomedicals, Ohio, USA).
Background: In western blotting, separated proteins are transferred to a membrane and probed.

Assay [3] concerns E2F-1. Nature of the assay: Western blot of E2F-1 in HPV16-immortalized keratinocytes. Type of assay: cell-based. The settings on record: HPV16-immortalized human keratinocytes, 6 mM sodium butyrate, 16 hours. As for the experimental part: Western blot analysis of cellular extracts obtained from E6-, E7-, and E6/E7-Immortalized cells which were separated in 8% (pRb) and 12% SDS-PAGE gels. After electrotransfer, the filters were incubated with pRb, E2F-1, cyclin E and actin antibodies. […] Due to quantitative differences of pRb and cyclin E levels in E7- and E6/E7-positive cells, the filters were exposed for different times.
HPV18-positive cervical Carcinoma cells (HeLa) were maintained in Dulbecco's modified Eagle's medium (DMEM), supplemented with 10% fetal calf serum (Gibco BRL, Rockville, USA), 1% penicillin and streptomycin (Sigma, Deisenhofen, Deutschland). Primary human keratinocytes, immortalized by E6-, E7- and E6/E7-open reading frames carrying amphotroptic retroviruses were cultivated in “Keratinocyte Medium Kit” (Sigma). Human foreskin keratinocytes transformed with HPV-16 E6/E7 either under the control of a human β-actin promoter (,1321″) or under the control of the authentic upstream regulatory region HPV (,1637″) were a kind gift of Dr. R. Schlegel (Georgetown University, Washington, USA) (Münger et al., J. Virol. 63 (1989), 4414-4423; Villa & Schlegel, Virology 181 (1991), 374-377). Cells were grown in 3 parts of keratinocyte-serum free medium (K-SFM, GIBCO, BRL) and 1 part of DMEM containing 10% fetal calf serum (GIBCO, BRL) and 0.75% gentamycin, 0.25% penicillin/streptomycin, respectively […]

Assay [4] concerns p21^CIP1 mRNA. Kind of assay: Northern blot of p21^CIP1 in "1637" keratinocytes. The settings on record: "1637" cells, six hours following NaB addition. The format is cell-based, human. As for the experimental part:
Keratinocytes immortalized with HPV16 E6/E7 either under control of (A) the homologues viral upstream regulatory region (,1637″) or (B) of the β-actin promoter (,1321″) were incubated with NaB for various periods of time. 5 μg of RNA was separated in 1% agarose gels. The filters were hybridized with probes specific for HPV16, p21^CIP1 (=p21), β-actin and GAPDH. The positions of the 28S and 18S ribosomal RNA are indicated. (Contr.): untreated cells.
Total cellular RNA was extracted according to the guanidinium-thiocyanate procedure (Chomczynski and Sacchi, Anal. Biochem. 162 (1987), 156-159). Approximately 5 μg RNA were separated on 1% agarose gels in the presence of ethidium bromide under non-denaturing conditions and transferred to GeneScreen Plus membranes (DuPont, Bad Homburg, Deutschland). The filters were hybridized under stringent conditions with specific probes, which were labeled with ^32p-dCTP by random priming (Feinberg and Vogelstein, Anal. Biochem. 137 (1984), 266-267).

Assay [5] relates to cdk2 complex. Kind of assay: Western blot analysis of cdk2 immunoprecipitates from "1321" and "1637" keratinocytes. The format is cell-based, human. As to conditions: "1321" and "1637" cells, 6 mM sodium butyrate, 16 hours. How it is done: (A) Upper panel: cdk2 complexes were immunoprecipitated and assayed for their activity using histone H1 as substrate. Lower panels: Western blot analysis of the cdk 2 complexes. Filters were incubated with specific antibodies against p21^CIP1 (=p21) and p27^KIP1 (=p27). Equal precipitation and loading was controlled by incubation with a cdk 2 antibody.
For cell fractionation, cell monolayers were washed twice with PBS and harvested by trypsinisation. Cell extract preparation and cdk2 activity assays were exactly done as described by Blomberg and Hoffmann, Mol. Cell. Biol. 19 (1999), 6183-6194. In addition, cdk2 was immunoprecipitated and analyzed by immunoblotting. Beads used for cdk2 kinase assay were washed 3 times with lysis buffer (Blomberg and Hoffmann, 1999), incubated with Laemmli sample buffer and boiled for 5 min. Supernatant was analyzed by SDS-PAGE gels. Immunoblotting was carried out with the following antibodies: p21^CIP1 (C24420) and p27^KIP1 (K25020; Transduction Laboratories) or HPV18-E7 (N-19; Santa Cruz, Inc.). Cdk2 specific antibodies or preimmune serum were kindly provided by I. Hoffmann (DKFZ, Heidelberg).

In the case of `CCCC(=O)[O-].[Na+]` [sodium butyrate], the “proportion of cells within S-phase” value in assay [1] (untreated 31.5%) is 18.6%. The “cells in G1” value in assay [1] (untreated 54.2%) is 65.3%. The “cyclin D1 protein level” value in assay [2] is reported as “selectively downregulates”. Besides, in assay [3], the E2F-1 level entry is recorded as “did not significantly vary”. In assay [4], the p21CIP1 expression entry is recorded as “augmented”. Also, the “p21^CIP1 and p27^KIP1 co-precipitated with cdk2” value in assay [5] was “high amounts of co-precipitated”.

The values are drawn from US20040132817A1, “Use of an histone deacetylase inhibitor for the treatment of diseases associated with an hpv infection” (priority 2001, published 2004).
